In data set [1] the target is T1, hERG channel (Homo sapiens, UniProt Q12809).
T1 construct: expressed in transfected cells; host or cells: CHO (hERG-CHO), under Geneticin selection
The experiment in a line: hERG channel inhibition, automated patch clamp (IonWorks HT, hERG-CHO). The data set is classed as cell-based. As to conditions: CHO cells expressing hERG, 600 s incubation; for inhibition at 600 s, 1 µM: 1 μM compound, read-out: hERG Channel Inhibition % (at 1 μM), vehicle-subtracted values; for inhibition at 600 s, 10 µM: 10 μM compound, read-out: hERG Channel Inhibition % (at 10 μM), vehicle-subtracted values. On the procedure:
Human ether-a-gogo-related (hERG) ion channel encodes the inward rectifying voltage gated potassium channel in the heart and has a major role during the repolarization of the cardiac action potential. It is well established that blockade of this ion channel can lead to potentially lethal arrhythmias. hERG pre-clinical safety data is often used by regulatory agencies in elucidate the toxicity profile of certain compositions. The disclosed compounds of Table 1 were tested for their ability to inhibit hERG ion channels.
Media components include F12 Nutrient Mixture (Ham) with GlutaMAX™ (Invitrogen, Cat#31765), Fetal Bovine Serum, Certified (Invitrogen, Cat#16000-044—not heat activated), and Geneticin® Selective Antibiotic (Invitrogen, Cat#10131-027).
One vial of frozen cells, at 1.62×10^6 cells are thawed into a T150 flask (BD Falcon 355001) with 40 mL of pre-warmed complete media. Cells are cultured at 37° C., 5% CO2 for four hours prior to gently changing media. 99% of cells appear attached at this time point.
The flask is media changed at 24 hours post-thaw, the cells are imaged, media changed, and returned to the incubator. At this point, the cells appear healthy and about 25% confluent in the flask. Cells are typically passed 24-48 hours after thaw according to the following intervals and densities below. Cells are incubated at 30° C. for 48 hours prior to assay.
Using an automated patch clamp apparatus (IonWorks^HT), a three pulse protocol was applied by stepping from a holding potential of −80 mV to […] for 2 s, to activate hERG channels. The membrane voltage was then stepped back to −50 mV for 2 s to evoke a tail current prior to returning to the holding potential for 1 s. This sequence was repeated a further two times. This voltage protocol was applied prior to drug (Pre compound) and after 600 s in the presence of drug (Post compound).
The amplitude of the hERG tail current was calculated by measuring the difference between the maximum current on stepping to −50 mV of the third pulse (i.e. peak of the outward hERG tail current) and the current measured immediately prior to activation of any hERG current. This parameter was assessed before (pre tail current amplitude) and after 600 s incubation (post tail current amplitude) in drug. In order to assess the amount of block produced by test compounds, the data was first filtered using the IonWorks™ software to exclude any cells where the seal resistance was less than 50 MOhm. The remaining data was then exported to an excel compatible data file and only currents with tail currents greater than 250 pA were analyzed. The post/pre tail current amplitude ratio for the third pulse was calculated for each drug and control, and presented as percent inhibition.

Data set [2] in a line: Pharmacokinetic study, plasma level 2 hours after oral dosing in rats. The format is in vivo. On the procedure: Pharmacokinetic studies were conducted to determine absorption and distribution profiles of the disclosed compounds which were orally administered to rats.
Compounds were formulated in a 1% DMA/99% Vitamin E TPGS vehicle. Prepared compounds were dosed via oral gavage (PO). Following the appropriate pretreatment time of 2 hours, rats were anesthetized with isoflurane gas. Blood was collected into tubes containing EDTA via retro-orbital eye bleed. Whole blood was spun in a micro-centrifuge at approximately 13,000 rpm for 5 minutes at room temperature. Separated plasma was subsequently aliquoted into eppendorf tubes. Samples were stored at −80° C. until prepped for analysis.
Plasma samples were thawed and the required amount of plasma for standards, blanks and dilutions were made. The dilutions were prepared before plating. Preparation of crash solution included cold acetonitrile+0.1% formic acid and 25 ng/mL of a FAAH inhibitor used as internal standard. solvent standards of the FAAH inhibitor being studied were preparation at 10, 30, 100, 300, 1000, 3000, 10000, 30000, 100000, and 300000 ng/mL in DMSO. Then a plasma standard curve was generated from the solvent standards (final concentrations of standards in plasma were: 0.1, 0.3, 1, 3, 10, 30, 100, 300, 1000, 3000 ng/mL). 50 μL of each plasma sample/dilution, standard, or blank was transferred into 96-well plates. To each well, 200 μL of cold crash solution was added. The plate was covered and gently vortexed. The plate was centrifuged at 3500 rpm, 4° C. for 10 min. 200 μL of each supernatant was transferred into new plates. The plates were dried under nitrogen in a TurboVap at 55° C. The sample in each well was re-suspended with 100 μL of 30% acetonitrile, covered and vortexed gently. The well solutions were analyzed by the LC/MS/MS conditions and specifications below.
HPLC column was a Clipeus C8, 2.1×30 mm, 5 μm, with Basic 8 guard column using 20 μL injections. Mobile phase used was mobile phase A: 0.1% Formic Acid in water and mobile phase B: 0.1% Formic Acid in 85:10:5 ACN:IPA:H2O. The flow rate for the run was 0.5 mL/min and the gradient for the 4 minute total run time was: 0.0 minutes

Data set [3] concerns the target T2, FAAH (Homo sapiens, UniProt O00519).
T2 construct: Reactions were initiated by adding 12.5 μg of brain microsome; tissue ABS, Inc; host or cells: human brain cerebral cortex, membrane/microsome fraction pooled from 3 donors
T2 sequence (O00519 1-579): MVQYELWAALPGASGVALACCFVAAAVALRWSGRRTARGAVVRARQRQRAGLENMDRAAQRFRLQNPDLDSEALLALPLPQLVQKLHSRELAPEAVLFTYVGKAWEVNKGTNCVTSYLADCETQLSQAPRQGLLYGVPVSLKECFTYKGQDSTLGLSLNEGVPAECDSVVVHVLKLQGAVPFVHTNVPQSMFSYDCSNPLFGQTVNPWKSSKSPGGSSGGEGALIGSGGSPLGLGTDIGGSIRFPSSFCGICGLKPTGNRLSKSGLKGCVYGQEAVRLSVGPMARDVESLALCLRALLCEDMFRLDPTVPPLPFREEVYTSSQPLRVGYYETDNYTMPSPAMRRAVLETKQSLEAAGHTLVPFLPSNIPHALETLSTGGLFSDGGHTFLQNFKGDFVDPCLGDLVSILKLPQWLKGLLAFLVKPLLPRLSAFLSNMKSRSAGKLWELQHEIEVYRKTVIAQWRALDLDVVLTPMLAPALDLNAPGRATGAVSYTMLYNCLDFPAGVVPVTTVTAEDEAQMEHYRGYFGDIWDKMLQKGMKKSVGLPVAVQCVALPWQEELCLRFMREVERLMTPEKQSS
The experiment in a line: FAAH inhibition, human brain membrane homogenate assay. The format is biochemical.

[4] abbreviates: human brain homogenate, average activity, read-out: Human brain Extract FAAH IC50.

Each structure is given as a SMILES string. Like-named read-outs stand apart in the source and are kept apart here. Where only a bound is given, the exact number is not on record here.

T1 sequence (Q12809 whole entry): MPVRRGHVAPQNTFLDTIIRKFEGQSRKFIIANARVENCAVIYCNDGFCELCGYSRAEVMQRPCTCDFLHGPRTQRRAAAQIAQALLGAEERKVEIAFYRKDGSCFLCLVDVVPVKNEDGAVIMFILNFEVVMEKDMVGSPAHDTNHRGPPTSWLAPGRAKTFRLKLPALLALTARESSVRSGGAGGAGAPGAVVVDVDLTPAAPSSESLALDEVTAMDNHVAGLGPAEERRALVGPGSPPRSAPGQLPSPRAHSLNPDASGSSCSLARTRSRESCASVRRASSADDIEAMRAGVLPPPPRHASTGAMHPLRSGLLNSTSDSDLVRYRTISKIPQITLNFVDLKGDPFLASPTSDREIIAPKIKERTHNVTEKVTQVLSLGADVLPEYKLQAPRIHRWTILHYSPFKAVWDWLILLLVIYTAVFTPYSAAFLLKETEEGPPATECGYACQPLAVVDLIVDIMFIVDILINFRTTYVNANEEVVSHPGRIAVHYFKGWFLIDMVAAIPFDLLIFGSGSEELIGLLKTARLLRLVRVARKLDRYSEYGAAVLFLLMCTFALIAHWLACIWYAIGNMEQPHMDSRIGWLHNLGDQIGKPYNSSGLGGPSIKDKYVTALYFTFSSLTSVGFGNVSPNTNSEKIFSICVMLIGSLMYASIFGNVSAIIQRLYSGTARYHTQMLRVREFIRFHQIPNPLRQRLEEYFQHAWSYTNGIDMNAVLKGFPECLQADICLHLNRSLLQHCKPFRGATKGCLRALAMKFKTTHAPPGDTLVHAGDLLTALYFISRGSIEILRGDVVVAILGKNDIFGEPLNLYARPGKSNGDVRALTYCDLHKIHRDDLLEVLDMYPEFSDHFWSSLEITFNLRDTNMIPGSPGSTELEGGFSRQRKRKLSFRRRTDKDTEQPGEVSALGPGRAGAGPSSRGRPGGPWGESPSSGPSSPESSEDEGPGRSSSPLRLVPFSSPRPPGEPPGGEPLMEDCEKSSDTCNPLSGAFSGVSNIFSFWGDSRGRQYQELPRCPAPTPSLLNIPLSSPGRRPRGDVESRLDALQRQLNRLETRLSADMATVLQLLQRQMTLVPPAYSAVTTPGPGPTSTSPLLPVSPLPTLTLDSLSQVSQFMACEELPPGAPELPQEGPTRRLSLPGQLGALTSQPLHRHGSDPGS

Regarding `COc1ccc2c(c1)c(C(=O)C(=O)Nc1cc(Cl)nc(OC)c1)c(C)n2Cc1ccc(Cl)cc1` [Compound 47, N-(2-chloro-6-methoxypyridin-4-yl)-2-(1-(4-chlorobenzyl)-5-methoxy-2-methyl-1H-indol-3-yl)-2-oxoacetamide], in data set [1], the inhibition at 600 s, 1 µM was < 25% and the inhibition at 600 s, 10 µM was < 25%. For the same compound, the “2 hr plasma level-ng/mL (rat, 10 mg/kg PO, 2 hr)” value (from here on “2 hr plasma level-ng/mL”) in data set [2] is “C (C = between 100 nM and 1000 nM)”. The IC50 in data set [3] (setting [4]) was < 100 nM.
Turning to `COc1cc(NC(=O)C(=O)c2c(C)n(Cc3ccc(Cl)cc3)c3ccc(NC(C)=O)cc23)ccn1` [Compound 22, 2-(5-acetamido-1-(4-chlorobenzyl)-2-methyl-1H-indol-3-yl)-N-(2-methoxypyridin-4-yl)-2-oxoacetamide], in data set [1], the inhibition at 600 s, 1 µM is < 25% and the inhibition at 600 s, 10 µM was < 25%. In addition, the “2 hr plasma level-ng/mL” value in data set [2] is “B (B = between 10 nM and 100 nM)”. For the same compound, the IC50 in data set [3] (setting [4]) is < 100 nM.
Turning to `COc1cc(NC(=O)C(=O)c2c(C)n(Cc3ncc(Cl)cc3Cl)c3cc(F)c(OC)cc23)ccn1` [Compound 13, 2-(1-((3,5-dichloropyridin-2-yl)methyl)-6-fluoro-5-methoxy-2-methyl-1H-indol-3-yl)-N-(2-methoxypyridin-4-yl)-2-oxoacetamide], in data set [1], the inhibition at 600 s, 1 µM was < 25% and the inhibition at 600 s, 10 µM was < 25%. The “2 hr plasma level-ng/mL” value in data set [2] is “C (C = between 100 nM and 1000 nM)”. Further, in data set [3] (setting [4]), the IC50 is < 100 nM.
In the case of `COc1cc(NC(=O)C(=O)c2c(C)n(Cc3ccc(Cl)cn3)c3cc(OC)c(Cl)cc23)ccn1` [Compound 67, 2-(5-chloro-1-((5-chloropyridin-2-yl)methyl)-6-methoxy-2-methyl-1H-indol-3-yl)-N-(2-methoxypyridin-4-yl)-2-oxoacetamide], in data set [1], the inhibition at 600 s, 1 µM was < 25% and the inhibition at 600 s, 10 µM is < 25%. In addition, in data set [2], the “2 hr plasma level-ng/mL” value is “D (D = greater than 1000 nM)”. For the same compound, in data set [3] (setting [4]), the IC50 was < 100 nM.
On to `COc1cc(NC(=O)C(=O)c2c(C)n(Cc3ncc(Cl)cc3F)c3cc(F)c(OC)cc23)ccn1` [Compound 99, 2-(1-((5-chloro-3-fluoropyridin-2-yl)methyl)-6-fluoro-5-methoxy-2-methyl-1H-indol-3-yl)-N-(2-methoxypyridin-4-yl)-2-oxoacetamide], for which, in data set [1], the inhibition at 600 s, 1 µM was < 25% and the inhibition at 600 s, 10 µM was < 25%. The “2 hr plasma level-ng/mL” value in data set [2] was “D (D = greater than 1000 nM)”. Besides, the IC50 in data set [3] (setting [4]) is < 100 nM.
`COc1cc(NC(=O)C(=O)c2c(C)n(Cc3ccc(Cl)cn3)c3ccc(C)cc23)ccn1` [Compound 61, 2-(1-((5-chloropyridin-2-yl)methyl)-2,5-dimethyl-1H-indol-3-yl)-N-(2-methoxypyridin-4-yl)-2-oxoacetamide]: in data set [1], the inhibition at 600 s, 1 µM fell in the range of 25 to 50% and the inhibition at 600 s, 10 µM fell in the range of 50 to 75%. The “2 hr plasma level-ng/mL” value in data set [2] is listed as “D (D = greater than 1000 nM)”. Also, in data set [3] (setting [4]), the IC50 was < 100 nM.
In the case of `COc1cc(NC(=O)C(=O)c2c(C)n(Cc3ncc(F)cc3F)c3ccc(C)cc23)ccn1` [Compound 88, 2-(1-((3,5-difluoropyridin-2-yl)methyl)-2,5-dimethyl-1H-indol-3-yl)-N-(2-methoxypyridin-4-yl)-2-oxoacetamide], in data set [1], the inhibition at 600 s, 1 µM is < 25% and the inhibition at 600 s, 10 µM is < 25%. Besides, the “2 hr plasma level-ng/mL” value in data set [2] is “D (D = greater than 1000 nM)”. For the same compound, in data set [3], the IC50 is < 100 nM.
`COc1cnc2c(c1)c(C(=O)C(=O)Nc1ccnc(OC)c1)c(C)n2Cc1ccc(Cl)cc1` [Compound 38, 2-(1-(4-chlorobenzyl)-5-methoxy-2-methyl-1H-pyrrolo[2,3-b]pyridin-3-yl)-N-(2-methoxypyridin-4-yl)-2-oxoacetamide]: in data set [1], the inhibition at 600 s, 1 µM is < 25% and the inhibition at 600 s, 10 µM lay within 25 to 50%. For the same compound, the “2 hr plasma level-ng/mL” value in data set [2] was “C (C = between 100 nM and 1000 nM)”. In addition, the half-maximal inhibitory concentration (IC50) in data set [3] (setting [4]) is < 100 nM.
